The source made the active and inactive calls. The rule behind the calls is not given here.
Columns and labels:
[1] = tested on: Cladosporium sphaerospermum; test: Antifungal activity against Cladosporium sphaerospermum assessed as minimum concentration required to inhibit growth after 72 hrs by TLC; type: functional
[2] = tested on: Cladosporium cladosporioides; test: Antifungal activity against Cladosporium cladosporioides assessed as minimum concentration required to inhibit growth after 72 hrs by TLC; type: functional
[3] = tested on: Cladosporium cladosporioides; test: Antifungal activity against Cladosporium cladosporioides at 100 ug after 72 hrs by TLC; type: functional, organism-based
[4] = tested on: Cladosporium sphaerospermum; test: Antifungal activity against Cladosporium sphaerospermum at 100 ug after 72 hrs by TLC; type: functional, organism-based

Molecule: NYSTATIN
- Activity [1]: 1 µg
- Activity [2]: 1 µg

Molecule: COc1ccc(C(=O)O)cc1C/C=C(\C)CCC=C(C)C
- Activity [3]: inactive
- Activity [4]: inactive

Molecule: CC(C)=CCC/C(C)=C/Cc1cc(C(=O)O)ccc1O
- Activity [1]: 5 µg
- Activity [2]: 5 µg

Molecule: COC(=O)c1ccc(O)c(C(=O)C=C(C)C)c1
- Activity [3]: inactive
- Activity [4]: inactive

Molecule: Clc1ccc(COC(Cn2ccnc2)c2ccc(Cl)cc2Cl)c(Cl)c1 (configuration not stated) [MICONAZOLE]
- Activity [1]: 1 µg
- Activity [2]: 1 µg

Molecule: CC(C)=CCCC(C)(O)CC(=O)c1cc(C(=O)O)ccc1O (configuration not stated) [CRASSINERVIC ACID]
- Activity [1]: 0.5 µg
- Activity [2]: 0.5 µg

Molecule: COC(=O)c1ccc(O)c(CC(O)C(C)(C)O)c1 (configuration not stated) [HOSTMANIANE]
- Activity [1]: 0.5 µg
- Activity [2]: 0.5 µg

Molecule: COc1cc(O)c(C(=O)CCc2ccccc2)c(O)c1
- Activity [3]: inactive
- Activity [4]: inactive

Molecule: COC(=O)c1ccc(O)c(CC=C(C)C)c1
- Activity [1]: 1 µg
- Activity [2]: 1 µg

Molecule: COC(=O)c1cc(O)c2c(c1)C=CC(C)(C)O2
- Activity [1]: 5 µg
- Activity [2]: 5 µg

Molecule: COC(=O)c1cc2c(c(CC=C(C)C)c1)OC(C)(C)C=C2
- Activity [1]: 0.1 µg
- Activity [2]: 0.1 µg

Molecule: CC1(C)C=Cc2cc(C(=O)O)ccc2O1
- Activity [1]: 5 µg
- Activity [2]: 5 µg

Molecule: O=C1C[C@@H](c2ccccc2)Oc2cc(O)cc(O)c21 [PINOCEMBRIN]
- Activity [1]: 1 µg
- Activity [2]: 1 µg

Molecule: C=C(C)C(O)Cc1cc(C(=O)OC)ccc1O (configuration not stated)
- Activity [1]: 5 µg
- Activity [2]: 5 µg

Molecule: COc1cc(CCC(=O)O)cc(OC)c1OC
- Activity [1]: 10 µg
- Activity [2]: 10 µg

Molecule: COC(=O)c1cc(C(=O)C=C(C)C)ccc1OC [ADUNCUMENE]
- Activity [1]: 5 µg
- Activity [2]: 5 µg

Molecule: COC(=O)c1ccc(O)c([C@@H]2c3c(OC)cc(O)c(C(=O)CCc4ccccc4)c3O[C@H]2C(C)(C)O)c1
- Activity [3]: inactive
- Activity [4]: inactive

Molecule: CC(C)=CCC[C@@]1(C)C=Cc2cc(C(=O)O)cc(CC=C(C)C)c2O1
- Activity [1]: 10 µg
- Activity [2]: 10 µg

Molecule: COc1cc(O)c2c(c1)O[C@H](c1ccc(O)cc1)CC2=O [SAKURANETIN]
- Activity [1]: 1 µg
- Activity [2]: 1 µg

Molecule: COC(=O)c1ccc2c(c1)C=CC(C)(C)O2
- Activity [1]: 5 µg
- Activity [2]: 5 µg

Molecule: CC(C)=CCC/C(C)=C/C(=O)c1cc(O)ccc1O
- Activity [1]: 1 µg
- Activity [2]: 1 µg
